Experimental data from article PMC12856912, “Structure-Guided Semisynthesis of Blasticidin S–Amicetin Chimeras as Selective Ribosome Inhibitors” (Journal of the American Chemical Society, 2026).
Values after ≈ are worked out from the molar mass of the structure shown.

What was measured:
[1] = Cytotoxicity assay (MTS/PMS); format: cell-based; settings: monkey, Vero cells (monkey kidney epithelial cells); 24 h treatment, MTS/PMS, average of three biological replicates; read-out: CC50 against Vero cells
How it was run: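 Vero cells were allowed to adhere for 24 h in DMEM with 10% FBS at 37 °C, then exposed to serial compound dilutions for 24 h. Viability was measured by MTS/PMS (4 h, absorbance at 490 nm) and normalized to vehicle. CC50 is the concentration giving 50% viability, averaged over three biological replicates.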

[2] = test system: Vancomycin resistant E. faecalis NR-31972 (VRE); test: Antibacterial MIC assay, serial dilution; format: cell-based, Enterococcus faecalis; settings: for Selectivity index (CC50/MIC) VRE NR-31972: CC50 Vero cells / MIC; for MIC: Enterococcus faecalis, VRE, 24 h, read-out: MIC Vancomycin resistant E. faecalis NR-31972 (VRE)
How it was run: (§1)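 Broth microdilution in cation-adjusted Mueller-Hinton broth, inoculum diluted to OD600 0.004 from cultures grown to OD600 ~0.5; compounds tested at final 128–1 μg/mL. Plates incubated at 37 °C for 16–18 h, 24 h for VRE. MIC was the lowest concentration giving >90% growth inhibition by OD600.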

[3] = test system: Methicillin resistant S. aureus (MRSA) USA300; test: Antibacterial MIC assay, serial dilution; format: cell-based, Staphylococcus aureus; settings: for Selectivity index (CC50/MIC) MRSA USA300: CC50 Vero cells / MIC; for MIC: Staphylococcus aureus, read-out: MIC Methicillin resistant S. aureus (MRSA) USA300
[4] = test system: Vancomycin resistant Enterococcus faecium NR-31909 (VRE); test: Antibacterial MIC assay, serial dilution; format: cell-based; settings: for Selectivity index (CC50/MIC) VRE NR-31909: CC50 Vero cells / MIC; for MIC: Enterococcus faecium, VRE, 24 h, read-out: MIC Vancomycin resistant Enterococcus faecium NR-31909 (VRE)
How it was run: as §1

[5] = test system: Klebsiella pneumoniae ATCC 29665; test: Antibacterial MIC assay, serial dilution; format: cell-based; settings: for MIC: Klebsiella pneumoniae, ATCC29665, range from biological replicates, read-out: MIC K. pneumoniae ATCC-29665
How it was run: as §1

[6] = test system: Acinetobacter baumannii ATCC 17978; test: Antibacterial MIC assay, serial dilution; format: cell-based; settings: ATCC17978, range from biological replicates
How it was run: as §1

Structure (SMILES) | CC50 at 24 h [1] [µg/mL] | Selectivity index (CC50/MIC) VRE NR-31972 [2] | MIC [2] [µg/mL] | Selectivity index (CC50/MIC) MRSA USA300 [3] | MIC [3] [µg/mL] | Selectivity index (CC50/MIC) VRE NR-31909 [4] | MIC [4] [µg/mL] | MIC [5] [µg/mL] | MIC [6] [µg/mL] | Selectivity index (CC50/MIC) K. pneumoniae ([5]; CC50 Vero cells / MIC)
CNc1ccc(C(=O)Nc2ccn([C@H]3C=C[C@H](NC(=O)C[C@@H](N)CCN(C)C(=N)N)[C@@H](C(=O)NCCc4ccccc4)O3)c(=O)n2)cc1 [Blastimidine P3] | > 256 | >16 | 16 (≈ 24.3 µM) | >8.0 | 32 (≈ 48.6 µM) | >2.0 | 128 (≈ 194 µM) | > 128 | > 128 | 
CN(CC[C@H](N)CC(=O)N[C@H]1C=C[C@H](n2ccc(NC(=O)c3ccc(NC(=O)[C@@](C)(N)CO)cc3)nc2=O)O[C@@H]1C(=O)NCCc1ccccc1)C(=N)N [Blastimidine P5] | > 256 | >8.0 | 32 (≈ 42.9 µM) | >16 | 16 (≈ 21.5 µM) | >11 | 16 to 32 (≈ 21.5 to 42.9 µM) | 64 to 128 (≈ 85.8 to 172 µM) | > 128 | >3.0
